Converted amounts (≈) assume the structure as drawn. The source made the active and inactive calls. The calls are words filed in the database; no cut-off is given here.
Columns and labels:
[1] = Cytotoxicity against human L02 cells measured after 72 hrs by CCK8 assay; format: toxicity, cell-based
Cryptococcus neoformans [2] = experiment: Synergistic antifungal against Cryptococcus neoformans H99 incubated for 72 hrs in presence of FLC by CLSI based liquid microdilution technique; format: functional
Candida albicans [3] = experiment: Antifungal activity against Candida albicans SC5314 incubated for 48 hrs by CLSI based liquid microdilution technique; format: functional
Candida albicans [4] = experiment: Inhibition of biofilm formation in Candida albicans SC5314 at 4 ug/ml incubated for 24 hrs by XTT reduction method relative to control; format: functional; details: dose 4.0 µg/ml
[5] = target: Heat shock protein 90 homolog (Candida albicans (strain SC5314 / ATCC MYA-2876) (Yeast), UniProt P46598); experiment: Inhibition of HSP90 extracted from Candida albicans SC5314 lysate using FITC-Geldanamycin as substrate incubated for 6 hrs by fluorescence polarization assay; format: subcellular
Heat shock protein 90 homolog, sequence (P46598 whole entry): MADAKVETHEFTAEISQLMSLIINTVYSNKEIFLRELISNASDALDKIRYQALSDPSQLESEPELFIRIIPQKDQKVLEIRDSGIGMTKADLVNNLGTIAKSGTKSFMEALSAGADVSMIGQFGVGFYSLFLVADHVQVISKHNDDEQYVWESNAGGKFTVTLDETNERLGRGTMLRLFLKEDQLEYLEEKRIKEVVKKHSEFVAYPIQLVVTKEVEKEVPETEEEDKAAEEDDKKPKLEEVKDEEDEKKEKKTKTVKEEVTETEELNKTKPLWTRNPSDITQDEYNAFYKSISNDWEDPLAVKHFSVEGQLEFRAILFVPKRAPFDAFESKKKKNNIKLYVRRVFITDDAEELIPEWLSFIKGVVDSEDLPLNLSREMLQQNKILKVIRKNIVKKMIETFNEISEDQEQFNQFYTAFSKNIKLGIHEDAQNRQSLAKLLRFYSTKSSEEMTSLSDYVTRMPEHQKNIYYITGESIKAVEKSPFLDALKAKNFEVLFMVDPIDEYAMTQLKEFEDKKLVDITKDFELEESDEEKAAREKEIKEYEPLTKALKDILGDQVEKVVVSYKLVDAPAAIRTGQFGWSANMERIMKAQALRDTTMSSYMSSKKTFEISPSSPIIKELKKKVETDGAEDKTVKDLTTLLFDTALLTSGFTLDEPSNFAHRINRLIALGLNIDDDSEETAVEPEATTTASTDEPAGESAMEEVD

[6] = Cytotoxicity against HUVEC cells measured after 72 hrs by CCK8 assay; format: toxicity, cell-based; details: human
Nakaseomyces glabratus [7] = experiment: Synergistic antifungal activity against Candida glabrata 7804 incubated for 48 hrs in presence of FLC by CLSI based liquid microdilution technique; format: functional
Pichia kudriavzevii [8] = experiment: Antifungal activity against Candida krusei 10153 incubated for 48 hrs by CLSI based liquid microdilution technique; format: functional
Candida albicans [9] = experiment: Antifungal activity against Candida albicans SC5314 infected in immunosuppressed ICR mouse assessed as reduction in fungal burden in kidney at 10 mg/kg, ip treated for 5 days consecutively; format: functional, organism-based; details: time 5.0 day
Nakaseomyces glabratus [10] = experiment: Antifungal activity against Candida glabrata 7804 incubated for 48 hrs by CLSI based liquid microdilution technique; format: functional
Candida albicans [11] = experiment: Synergistic antifungal activity against Candida albicans SC5314 infected in immunosuppressed ICR mouse assessed as reduction in fungal burden in kidney at 10 mg/kg, ip treated for 5 days consecutively in presence of FLC; format: functional, organism-based; details: time 5.0 day
Pichia kudriavzevii [12] = experiment: Synergistic antifungal activity against Candida krusei 10153 incubated for 48 hrs in presence of FLC by CLSI based liquid microdilution technique; format: functional
Heat shock protein HSP90 = Heat shock protein HSP90 (Homo sapiens, UniProt P07900+P08238); experiment: Inhibition of human HSP90 using FITC-Geldanamycin as substrate incubated for 6 hrs by fluorescence polarization assay; format: protein assay
[13] = target: T1, Lanosterol 14-alpha demethylase (Candida albicans (strain SC5314 / ATCC MYA-2876) (Yeast), UniProt P10613); experiment: Inhibition of CYP51 in Candida albicans SC5314 assessed as decrease in ergosterol level at 4 ug/ml measured after 48 hrs by GC-MS analysis; details: at 4 µg/mL
T1 sequence (P10613 whole entry): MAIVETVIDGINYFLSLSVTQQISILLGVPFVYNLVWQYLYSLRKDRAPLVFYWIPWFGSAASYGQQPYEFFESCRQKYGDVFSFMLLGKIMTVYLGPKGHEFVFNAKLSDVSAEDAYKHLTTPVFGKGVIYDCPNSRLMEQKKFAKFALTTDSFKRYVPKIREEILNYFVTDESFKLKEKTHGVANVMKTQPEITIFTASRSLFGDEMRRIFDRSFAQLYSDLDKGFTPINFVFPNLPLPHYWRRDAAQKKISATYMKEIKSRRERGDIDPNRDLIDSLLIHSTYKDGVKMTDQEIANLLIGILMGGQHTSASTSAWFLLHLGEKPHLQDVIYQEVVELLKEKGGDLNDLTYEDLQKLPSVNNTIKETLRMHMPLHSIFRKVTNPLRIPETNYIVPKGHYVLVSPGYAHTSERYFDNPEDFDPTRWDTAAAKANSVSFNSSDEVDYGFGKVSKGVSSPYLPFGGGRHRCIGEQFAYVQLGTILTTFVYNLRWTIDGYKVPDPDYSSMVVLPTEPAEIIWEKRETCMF

Cryptococcus neoformans [14] = experiment: Antifungal activity against Cryptococcus neoformans H99 incubated for 72 hrs by CLSI based liquid microdilution technique; format: functional
Candida albicans [15] = experiment: Synergistic antifungal activity against Candida albicans SC5314 incubated for 48 hrs in presence of FLC by CLSI based liquid microdilution technique; format: functional
[16] = target: T1, Lanosterol 14-alpha demethylase; experiment: Inhibition of CYP51 in Candida albicans SC5314 assessed as accumulation of eburicol at 4 ug/ml measured after 48 hrs by GC-MS analysis; details: at 4 µg/mL

For `CCNC(=O)c1noc(-c2cc(-c3ccc(C)cc3)c(O)cc2O)c1-c1ccc(CN2CCOCC2)cc1`, the IC50 at 72 h [1] was 680 nM, the “fractional inhibitory concentration index (FICI)” value (Cryptococcus neoformans [2]) was 0.31 and the MIC80 (Candida albicans [3]) was 32 µg/mL (≈ 62.3 µM). For the same compound, the inhibition (Candida albicans [4]) was “Active; Exhibited Little Inhibitory Effect”, the IC50 [5] was 390 nM and the IC50 at 72 h [6] was 680 nM. For the same compound, the “fractional inhibitory concentration index (FICI)” value (Nakaseomyces glabratus [7]) was 0.5, the MIC80 (Pichia kudriavzevii [8]) was greater than 64 µg/mL and the Activity (Candida albicans [9]) was “inactive”. For the same compound, the MIC80 (Nakaseomyces glabratus [10]) was greater than 64 µg/mL, the Activity (Candida albicans [11]) was “Active” and the “fractional inhibitory concentration index (FICI)” value (Pichia kudriavzevii [12]) was 2. The IC50 (Heat shock protein HSP90) was 1540 nM, the “inhibition (INH)” value [13] was “Not_active” and the MIC80 (Cryptococcus neoformans [14]) was 32 µg/mL (≈ 62.3 µM). The “fractional inhibitory concentration index (FICI)” value (Candida albicans [15]) was 0.13.

For `OC(Cn1cncn1)(Cn1cncn1)c1ccc(F)cc1F` [FLUCONAZOLE], the MIC80 (Candida albicans [3]) was 0.5 µg/mL (≈ 1.63 µM), the “inhibition (INH)” value [16] was “Active” and the MIC80 (Pichia kudriavzevii [8]) was 64 µg/mL (≈ 209 µM). For the same compound, the MIC80 (Nakaseomyces glabratus [10]) was 16 µg/mL (≈ 52.2 µM) and the MIC80 (Cryptococcus neoformans [14]) was 1 µg/mL (≈ 3.27 µM).

Compound `CCN(C(=O)c1cc(-c2ccc(C)cc2)c(O)cc1O)c1ccc(CN2CCN(C(=O)CCCCCOc3ccc(CN(C)CC(O)(Cn4cncn4)c4ccc(F)cc4F)cc3)CC2)cc1` (centres undefined) has an MIC80 (Candida albicans [3]) of 8 µg/mL (≈ 8.73 µM), an MIC80 (Pichia kudriavzevii [8]) of 32 µg/mL (≈ 34.9 µM) and an MIC80 (Nakaseomyces glabratus [10]) of 16 µg/mL (≈ 17.5 µM). For the same compound, the MIC80 (Cryptococcus neoformans [14]) was 8 µg/mL (≈ 8.73 µM).

In the case of `CCN(C(=O)c1cc(-c2ccc(C)cc2)c(OCc2ccccc2)cc1OCc1ccccc1)c1ccc(CN2CCN(CC(O)(Cn3cncn3)c3ccc(F)cc3F)CC2)cc1` (centres undefined), the MIC80 (Candida albicans [3]) is reported as greater than 64 µg/mL, the MIC80 (Pichia kudriavzevii [8]) is reported as greater than 64 µg/mL and the MIC80 (Nakaseomyces glabratus [10]) is reported as 16 µg/mL (≈ 18.5 µM). It also gave an MIC80 (Cryptococcus neoformans [14]) greater than 64 µg/mL.

From ChEMBL document CHEMBL6096686, “Lanosterol 14α-Demethylase (CYP51)/Heat Shock Protein 90 (Hsp90) Dual Inhibitors for the Treatment of Invasive Candidiasis” (J Med Chem, 2025)
